# Test results: ChEMBL document CHEMBL3885861, “Open TG-GATES”
# Organism: Rattus norvegicus
# Experiment: Open TG-GATES - Regimen: Single
# Type: toxicity, organism-based, Sprague-Dawley
# Set-up: regimen Single, gender Male, age 6 weeks
# Conditions: in vivo, po, route gavage; for APTT / Bas / Eos / Fbg / Hb / Ht / Lym / MCHC / MCV / Mono / Neu / PT / Plat / RBC / Ret / WBC: tissue Blood; for KIDNEY_L / KIDNEY_R / KIDNEY_TOTAL: tissue Kidney; for LIVER: tissue Liver; for ALP / ALT / AST / BUN / CRE / Ca / Cl / DBIL / GLC / IP / K / LDH / Na / PL / RALB / TBIL / TC / TG / TP / gamma-GTP: tissue Plasma
# [1] = 0 mg/kg, 3 h, dose level Control
# [2] = 0 mg/kg, 6 h, dose level Control
# [3] = 0 mg/kg, 9 h, dose level Control
# [4] = 0 mg/kg, 24 h, dose level Control
compound,measurement,setting,value
CN(C)C(=N)N=C(N)N [METFORMIN],TERMINAL_BW,[1],200.9 g
same,APTT,[1],16.9 s
same,Bas,[1],0%
same,Eos,[1],0.6%
same,Fbg,[1],245.6 mg/dL
same,Hb,[1],13.1 g/dL
same,Ht,[1],39.6%
same,Lym,[1],76.8%
same,MCHC,[1],33%
same,MCV,[1],65.3 fL
same,Mono,[1],3.4%
same,Neu,[1],18.4%
same,PT,[1],12.3 s
same,Plat,[1],111.6 x10_4/uL
same,RBC,[1],606.6 x10_4/ul
same,Ret,[1],10.1%
same,WBC,[1],96.1 x10_2/uL
same,KIDNEY_L,[1],0.9 g
same,KIDNEY_R,[1],0.9 g
same,KIDNEY_TOTAL,[1],1.8 g
same,LIVER,[1],8.5 g
same,ALP,[1],1612 IU/L
same,ALT,[1],43.6 IU/L
same,AST,[1],74.2 IU/L
same,BUN,[1],9.2 mg/dL
same,CRE,[1],0.2 mg/dL
same,Ca,[1],11.1 mg/dL
same,Cl,[1],104 meq/L
same,DBIL,[1],0.016 mg/dL
same,GLC,[1],179.8 mg/dL
same,IP,[1],9.2 mg/dL
same,K,[1],4.2 meq/L
same,LDH,[1],58.2 IU/L
same,Na,[1],140 meq/L
same,PL,[1],136.6 mg/dL
same,RALB,[1],2.5 g/dL
same,TBIL,[1],0.052 mg/dL
same,TC,[1],87 mg/dL
same,TG,[1],42.2 mg/dL
same,TP,[1],5.2 g/dL
same,gamma-GTP,[1],1.4 IU/L
same,TERMINAL_BW,[2],202.6 g
same,APTT,[2],16.1 s
same,Bas,[2],0%
same,Eos,[2],0.8%
same,Fbg,[2],261 mg/dL
same,Hb,[2],12.9 g/dL
same,Ht,[2],38.9%
same,Lym,[2],77.2%
same,MCV,[2],62.9 fL
same,Mono,[2],3%
same,Neu,[2],18.4%
same,PT,[2],12.2 s
same,Plat,[2],113.4 x10_4/uL
same,RBC,[2],618.4 x10_4/ul
same,Ret,[2],9.2%
same,WBC,[2],92.1 x10_2/uL
same,KIDNEY_L,[2],0.9 g
same,KIDNEY_R,[2],0.9 g
same,KIDNEY_TOTAL,[2],1.8 g
same,LIVER,[2],8 g
same,ALP,[2],1285 IU/L
same,ALT,[2],44.8 IU/L
same,AST,[2],78.8 IU/L
same,BUN,[2],7.6 mg/dL
same,CRE,[2],0.1 mg/dL
same,Ca,[2],10.7 mg/dL
same,Cl,[2],104.8 meq/L
same,DBIL,[2],0.006 mg/dL
same,GLC,[2],161 mg/dL
same,IP,[2],9.9 mg/dL
same,K,[2],4.1 meq/L
same,LDH,[2],64 IU/L
same,Na,[2],139.4 meq/L
same,PL,[2],121 mg/dL
same,RALB,[2],2.4 g/dL
same,TBIL,[2],0.046 mg/dL
same,TG,[2],27.2 mg/dL
same,TP,[2],5 g/dL
same,gamma-GTP,[2],1 IU/L
same,TERMINAL_BW,[3],201 g
same,APTT,[3],16 s
same,Bas,[3],0%
same,Eos,[3],1%
same,Fbg,[3],244.8 mg/dL
same,Hb,[3],12.4 g/dL
same,Lym,[3],73.8%
same,MCV,[3],64.5 fL
same,Mono,[3],3.2%
same,Neu,[3],21.4%
same,PT,[3],12.2 s
same,Plat,[3],107.6 x10_4/uL
same,RBC,[3],577.8 x10_4/ul
same,Ret,[3],10%
same,WBC,[3],75.6 x10_2/uL
same,KIDNEY_L,[3],0.9 g
same,KIDNEY_R,[3],0.9 g
same,KIDNEY_TOTAL,[3],1.7 g
same,LIVER,[3],7.7 g
same,ALP,[3],1175 IU/L
same,ALT,[3],41.6 IU/L
same,AST,[3],69.6 IU/L
same,BUN,[3],9 mg/dL
same,CRE,[3],0.1 mg/dL
same,Ca,[3],10.6 mg/dL
same,Cl,[3],105 meq/L
same,DBIL,[3],0.008 mg/dL
same,GLC,[3],164.8 mg/dL
same,IP,[3],10.5 mg/dL
same,K,[3],4 meq/L
same,LDH,[3],49 IU/L
same,Na,[3],141 meq/L
same,PL,[3],136.4 mg/dL
same,RALB,[3],2.5 g/dL
same,TBIL,[3],0.042 mg/dL
same,TC,[3],87 mg/dL
same,TG,[3],35.6 mg/dL
same,TP,[3],5.1 g/dL
same,gamma-GTP,[3],1 IU/L
same,TERMINAL_BW,[4],207.9 g
same,APTT,[4],16.4 s
same,Bas,[4],0%
same,Eos,[4],1%
same,Fbg,[4],230.4 mg/dL
same,Hb,[4],13 g/dL
same,Ht,[4],38.7%
same,Lym,[4],77%
same,MCHC,[4],33.5%
same,Mono,[4],3.8%
same,Neu,[4],17.8%
same,PT,[4],12.5 s
same,Plat,[4],115 x10_4/uL
same,RBC,[4],595.2 x10_4/ul
same,Ret,[4],8.9%
same,WBC,[4],101.4 x10_2/uL
same,KIDNEY_L,[4],0.9 g
same,KIDNEY_R,[4],0.9 g
same,KIDNEY_TOTAL,[4],1.8 g
same,LIVER,[4],10 g
same,ALP,[4],1728.6 IU/L
same,ALT,[4],49.8 IU/L
same,AST,[4],78.2 IU/L
same,BUN,[4],16 mg/dL
same,CRE,[4],0.2 mg/dL
same,Ca,[4],11.4 mg/dL
same,Cl,[4],103.8 meq/L
same,DBIL,[4],0.012 mg/dL
same,GLC,[4],173 mg/dL
same,IP,[4],8.6 mg/dL
same,K,[4],3.9 meq/L
same,LDH,[4],63.6 IU/L
same,Na,[4],141.2 meq/L
same,PL,[4],139 mg/dL
same,RALB,[4],2.6 g/dL
same,TBIL,[4],0.038 mg/dL
same,TG,[4],89.6 mg/dL
same,TP,[4],5.5 g/dL
same,gamma-GTP,[4],1 IU/L
same,TERMINAL_BW,"100 mg/kg, 3 h, dose level Low",201 g
